Measured values reported in patent US9328099B2, “Cyanomethylpyrazole carboxamides as janus kinase inhibitors” (Merck Sharp & Dohme Corp., priority 2011, dated 2016).

Assays:
JAK2 = JAK2 (Homo sapiens (Human), UniProt O60674); test: Jak Biochemical HTRF Assay, JAK2; conditions: HTRF biochemical assay, GST-tagged catalytic domain; top concentration tested […]
Excerpt: (§1) Jak Biochemical HTRF Assay Protocol
(§2) Subsequent reagent additions employed an Agilent Bravo.

JAK1 = JAK1 (Homo sapiens (Human), UniProt P23458); test: Jak Biochemical HTRF Assay, JAK1; conditions: HTRF biochemical assay, GST-tagged catalytic domain; top concentration tested […]; read-out: JAK1 IC50
Chain of JAK1 (P23458 875-1153): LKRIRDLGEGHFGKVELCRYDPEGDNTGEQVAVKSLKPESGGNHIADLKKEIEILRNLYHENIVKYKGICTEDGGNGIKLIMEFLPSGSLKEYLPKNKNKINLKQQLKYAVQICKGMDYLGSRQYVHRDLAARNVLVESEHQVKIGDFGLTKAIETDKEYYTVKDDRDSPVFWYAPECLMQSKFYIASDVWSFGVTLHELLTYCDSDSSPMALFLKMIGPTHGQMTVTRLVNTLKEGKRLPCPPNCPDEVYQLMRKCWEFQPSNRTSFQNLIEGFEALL
Excerpt: as §1, §2

Chain of JAK2 (O60674 849-1124): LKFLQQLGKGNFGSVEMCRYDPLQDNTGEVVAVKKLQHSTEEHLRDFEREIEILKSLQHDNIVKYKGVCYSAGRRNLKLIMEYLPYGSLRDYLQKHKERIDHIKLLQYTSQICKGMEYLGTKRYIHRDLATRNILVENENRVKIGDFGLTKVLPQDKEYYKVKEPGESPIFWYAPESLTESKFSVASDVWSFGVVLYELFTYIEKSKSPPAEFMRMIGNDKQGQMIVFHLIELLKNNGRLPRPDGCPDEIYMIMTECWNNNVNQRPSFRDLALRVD

| IC50 (JAK2) | IC50 (JAK1) | SMILES |
| --- | --- | --- |
| 325 nM | 14 nM | N#CCC1(n2cc(C(N)=O)c(Nc3ccc(F)cc3)n2)CCC(N2CCC2)CC1 (stereo not drawn) [Example 40-80, Cis or trans 1-[4-azetidin-1-yl-1-(cyanomethyl)cyclohexyl]-3-[(4-fluorophenyl)amino]-1H-pyrazole-4-carboxamide] |
| 466 nM | 13 nM | N#CCC1(n2cc(C(N)=O)c(Nc3ccc(S(=O)(=O)C(F)F)cc3)n2)CCC(NCC(F)(F)F)CC1 (stereo not drawn) [Example 40-89, Cis or trans 1-{1-(cyanomethyl)-4-[(2,2,2-trifluoroethyl)amino]cyclohexyl}-3-({4-[(difluoromethyl)sulfonyl]phenyl}amino)-1H-pyrazole-4-carboxamide] |
| > 1500 nM | 166 nM | N#CCC1(n2cc(C(N)=O)c(Nc3ccnc(F)c3)n2)CCC(NCC(F)(F)F)CC1 (stereo not drawn) [Example 40-93, Cis or trans 1-{1-(cyanomethyl)-4-[(2,2,2-trifluoroethyl)amino]cyclohexyl}-3-[(2-fluoropyridin-4-yl)amino]-1H-pyrazole-4-carboxamide] |
| > 1500 nM | 234 nM | COC1CN(C2CCC(CC#N)(n3cc(C(N)=O)c(Nc4ccnc(F)c4)n3)CC2)C1 (stereo not drawn) [Example 40-94, Cis or trans 1-[1-(cyanomethyl)-4-(3-methoxyazetidin-1-yl)cyclohexyl]-3-[(2-fluoropyridin-4-yl)amino]-1H-pyrazole-4-carboxamide] |
| 216 nM | 18 nM | N#CCC1(n2cc(C(N)=O)c(Nc3ccc(F)cc3)n2)CCC(N2CC(F)C2)CC1 (stereo not drawn) [Example 40-100, Cis or trans 1-[1-(cyanomethyl)-4-(3-fluoroazetidin-1-yl)cyclohexyl]-3-[(4-fluorophenyl)amino]-1H-pyrazole-4-carboxamide] |
| 1 nM | 0.05 nM | N#CCC1(n2cc(C(N)=O)c(Nc3ccc(S(=O)(=O)C(F)F)cc3)n2)CCC(Nc2ccccc2)CC1 (stereo not drawn) [Example 40-102, Cis or trans 1-[1-(cyanomethyl)-4-(phenylamino)cyclohexyl]-3-({4-[(difluoromethyl)sulfonyl]phenyl}amino)-1H-pyrazole-4-carboxamide] |
| 11 nM | 0.2 nM | N#CCC1(n2cc(C(N)=O)c(Nc3ccnc(F)c3)n2)CCC(N2CC(F)C2)CC1 (stereo not drawn) [Example 40-104, Cis or trans 1-[1-(cyanomethyl)-4-(3-fluoroazetidin-1-yl)cyclohexyl]-3-[(2-fluoropyridin-4-yl)amino]-1H-pyrazole-4-carboxamide] |

The next lines start with the compound.

| SMILES | IC50 (JAK2) | IC50 (JAK1) |
| --- | --- | --- |
| N#CCC1(n2cc(C(N)=O)c(Nc3ccc(F)cc3)n2)CCC(NCCF)CC1 (stereo not drawn) [Example 40-79, Cis or trans 1-{1-(cyanomethyl)-4-[(2-fluoroethyl)amino]cyclohexyl}-3-[(4-fluorophenyl)amino]-1H-pyrazole-4-carboxamide] | 133 nM | 8 nM |
| COC1CN(C2CCC(CC#N)(n3cc(C(N)=O)c(Nc4ccnc(F)c4)n3)CC2)C1 (stereo not drawn) [Example 40-81, Cis or trans 1-[1-(cyanomethyl)-4-(3-methoxyazetidin-1-yl)cyclohexyl]-3-[(2-fluoropyridin-4-yl)amino]-1H-pyrazole-4-carboxamide] | 5 nM | 0.1 nM |
| N#CCC1(n2cc(C(N)=O)c(Nc3ccnc(F)c3)n2)CCC(N2CC(F)C2)CC1 (stereo not drawn) [Example 40-82, Cis or trans 1-[1-(cyanomethyl)-4-(3-fluoroazetidin-1-yl)cyclohexyl]-3-[(2-fluoropyridin-4-yl)amino]-1H-pyrazole-4-carboxamide] | 444 nM | 26 nM |
| N#CCC1(n2cc(C(N)=O)c(Nc3ccc(S(=O)(=O)C(F)F)cc3)n2)CCC(NCC(F)F)CC1 (stereo not drawn) [Example 40-84, Cis or trans 1-{1-(cyanomethyl)-4-[(2,2-difluoroethyl)amino]cyclohexyl}-3-({4-[(difluoromethyl)sulfonyl]phenyl}amino)-1H-pyrazole-4-carboxamide] | 3 nM | 0.04 nM |
| N#CCC1(n2cc(C(N)=O)c(Nc3ccc(S(=O)(=O)C(F)F)cc3)n2)CCC(NCC(F)(F)F)CC1 (stereo not drawn) [Example 40-85, Cis or trans 1-{1-(cyanomethyl)-4-[(2,2,2-trifluoroethyl)amino]cyclohexyl}-3-({4-[(difluoromethyl)sulfonyl]phenyl}amino)-1H-pyrazole-4-carboxamide] | 0.2 nM | 0.02 nM |
| N#CCC1(n2cc(C(N)=O)c(Nc3ccnc(F)c3)n2)CCC(NCC(F)F)CC1 (stereo not drawn) [Example 40-87, Cis or trans 1-{1-(cyanomethyl)-4-[(2,2-difluoroethyl)amino]cyclohexyl}-3-[(2-fluoropyridin-4-yl)amino]-1H-pyrazole-4-carboxamide] | 524 nM | 13 nM |
| N#CCC1(n2cc(C(N)=O)c(Nc3ccc(S(=O)(=O)C(F)F)cc3)n2)CCC(Nc2ccccc2)CC1 (stereo not drawn) [Example 40-88, Cis or trans 1-[1-(cyanomethyl)-4-(phenylamino)cyclohexyl]-3-({4-[(difluoromethyl)sulfonyl]phenyl}amino)-1H-pyrazole-4-carboxamide] | > 1500 nM | 200 nM |
| N#CCC1(n2cc(C(N)=O)c(Nc3ccc(F)cc3)n2)CCC(N2Cc3ccccc3C2)CC1 (stereo not drawn) [Example 40-90, Cis or trans 1-[1-(cyanomethyl)-4-(1,3-dihydro-2H-isoindol-2-yl)cyclohexyl]-3-[(4-fluorophenyl)amino]-1H-pyrazole-4-carboxamide] | 84 nM | 9 nM |
| N#CCC1(n2cc(C(N)=O)c(Nc3ccc(F)cc3)n2)CCC(NCc2ccccc2)CC1 (stereo not drawn) [Example 40-92, Cis or trans 1-[4-(benzylamino)-1-(cyanomethyl)cyclohexyl]-3-[(4-fluorophenyl)amino]-1H-pyrazole-4-carboxamide] | 0.2 nM | 0.04 nM |
| N#CCC1(n2cc(C(N)=O)c(Nc3ccnc(F)c3)n2)CCC(NCC(F)(F)F)CC1 (stereo not drawn) [Example 40-95, Cis or trans 1-{1-(cyanomethyl)-4-[(2,2,2-trifluoroethyl)amino]cyclohexyl}-3-[(2-fluoropyridin-4-yl)amino]-1H-pyrazole-4-carboxamide] | 794 nM | 28 nM |
| N#CCC1(n2cc(C(N)=O)c(Nc3ccc(F)cc3)n2)CCC(Nc2ccccc2)CC1 (stereo not drawn) [Example 40-96, Cis or trans 1-[1-(cyanomethyl)-4-(phenylamino)cyclohexyl]-3-[(4-fluorophenyl)amino]-1H-pyrazole-4-carboxamide] | 2 nM | 0.09 nM |
| N#CCC1(n2cc(C(N)=O)c(Nc3ccc(S(=O)(=O)C(F)F)cc3)n2)CCC(NCC(F)F)CC1 (stereo not drawn) [Example 40-99, Cis or trans 1-{1-(cyanomethyl)-4-[(2,2-difluoroethyl)amino]cyclohexyl}-3-({4-[(difluoromethyl)sulfonyl]phenyl}amino)-1H-pyrazole-4-carboxamide] | > 1500 nM | 506 nM |
| N#CCC1(n2cc(C(N)=O)c(Nc3ccc(F)cc3)n2)CCC(Nc2ccccc2)CC1 (stereo not drawn) [Example 40-103, Cis or trans 1-[1-(cyanomethyl)-4-(phenylamino)cyclohexyl]-3-[(4-fluorophenyl)amino]-1H-pyrazole-4-carboxamide] | 3 nM | 0.1 nM |
